Source: the supplement of paper PMC10307832

What was measured:
Assay in all cases: relative viability (nuclei count vs DMSO), 5 days (fraction); higher = more cells survive
NCI-H358 = system: NCI-H358
How it was run: (§1)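 Each reported value is a median over duplicate plates. It expresses relative viability: treated-well nuclei count divided by vehicle-well nuclei count. Lung cancer cell lines in 1536-well plates were dosed by pin tool a day after seeding, alone with one drug or with a fixed anchor-drug dose plus five library-drug doses (not always all listed) in √10 steps, and nuclei were counted after 5 days.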

NCI-H1355 = system: NCI-H1355
How it was run: as §1

NCI-H2228 = system: NCI-H2228
How it was run: as §1

COR-L23 = system: COR-L23
How it was run: as §1

NCI-H1755 = system: NCI-H1755
How it was run: as §1

SK-MES-1 = system: SK-MES-1
How it was run: as §1

NCI-H1793 = system: NCI-H1793
How it was run: as §1

COR-L 105 = system: COR-L 105
How it was run: as §1

HOP-62 = system: HOP-62
How it was run: as §1

NCI-H1395 = system: NCI-H1395
How it was run: as §1

NCI-H2170 = system: NCI-H2170
How it was run: as §1

NCI-H1993 = system: NCI-H1993
How it was run: as §1

UMC-11 = system: UMC-11
How it was run: as §1

NCI-H1734 = system: NCI-H1734
How it was run: as §1

NCI-H647 = system: NCI-H647
How it was run: as §1

NCI-H1792 = system: NCI-H1792
How it was run: as §1

NCI-H838 = system: NCI-H838
How it was run: as §1

HCC-15 = system: HCC-15
How it was run: as §1

NCI-H2009 = system: NCI-H2009
How it was run: as §1

NCI-H2347 = system: NCI-H2347
How it was run: as §1

HARA = system: HARA
How it was run: as §1

Question: Which results are given for Cc1sc2c(c1C)C(c1ccc(Cl)cc1)=N[C@@H](CC(=O)OC(C)(C)C)c1nnc(C)n1-2 [JQ1] + Cc1nc(NC(=O)N2CCC[C@H]2C(N)=O)sc1-c1ccnc(C(C)(C)C(F)(F)F)c1 [Alpelisib] (partner 2 µM)?
Answer: relative viability (NCI-H358; first compound 0.04 µM): 0.761; relative viability (NCI-H358; first compound 0.1265 µM): 1.05; relative viability (NCI-H358; first compound 0.4 µM): 0.93; relative viability (NCI-H358; first compound 1.265 µM): 0.515; relative viability (NCI-H358; first compound 4 µM): 0.527; relative viability (NCI-H1355; first compound 0.04 µM): 0.856; relative viability (NCI-H1355; first compound 0.1265 µM): 0.84; relative viability (NCI-H1355; first compound 0.4 µM): 0.71; relative viability (NCI-H1355; first compound 1.265 µM): 0.508; relative viability (NCI-H1355; first compound 4 µM): 0.438; relative viability (NCI-H2228; first compound 0.04 µM): 0.644; relative viability (NCI-H2228; first compound 0.1265 µM): 0.602; relative viability (NCI-H2228; first compound 0.4 µM): 0.504; relative viability (NCI-H2228; first compound 1.265 µM): 0.497; relative viability (NCI-H2228; first compound 4 µM): 0.451; relative viability (COR-L23; first compound 0.04 µM): 0.814; relative viability (COR-L23; first compound 0.1265 µM): 0.708; relative viability (COR-L23; first compound 0.4 µM): 0.754; relative viability (COR-L23; first compound 1.265 µM): 0.36; relative viability (COR-L23; first compound 4 µM): 0.21; relative viability (NCI-H1755; first compound 0.04 µM): 0.916; relative viability (NCI-H1755; first compound 0.1265 µM): 0.918; relative viability (NCI-H1755; first compound 0.4 µM): 1.01; relative viability (NCI-H1755; first compound 1.265 µM): 0.623; relative viability (NCI-H1755; first compound 4 µM): 0.533; relative viability (SK-MES-1; first compound 0.04 µM): 0.769; relative viability (SK-MES-1; first compound 0.1265 µM): 0.68; relative viability (SK-MES-1; first compound 0.4 µM): 0.733; relative viability (SK-MES-1; first compound 1.265 µM): 0.456; relative viability (SK-MES-1; first compound 4 µM): 0.27; relative viability (NCI-H1793; first compound 0.04 µM): 0.653; relative viability (NCI-H1793; first compound 0.1265 µM): 0.781; relative viability (NCI-H1793; first compound 0.4 µM): 0.558; relative viability (NCI-H1793; first compound 1.265 µM): 0.633; relative viability (NCI-H1793; first compound 4 µM): 0.696; relative viability (COR-L 105; first compound 0.04 µM): 0.799; relative viability (COR-L 105; first compound 0.1265 µM): 0.642; relative viability (COR-L 105; first compound 0.4 µM): 0.421; relative viability (COR-L 105; first compound 1.265 µM): 0.252; relative viability (COR-L 105; first compound 4 µM): 0.255; relative viability (HOP-62; first compound 0.04 µM): 1.2; relative viability (HOP-62; first compound 0.1265 µM): 0.728; relative viability (HOP-62; first compound 0.4 µM): 0.332; relative viability (HOP-62; first compound 1.265 µM): 0.182; relative viability (HOP-62; first compound 4 µM): 0.09; relative viability (NCI-H1395; first compound 0.04 µM): 1.03; relative viability (NCI-H1395; first compound 0.1265 µM): 0.856; relative viability (NCI-H1395; first compound 0.4 µM): 0.813; relative viability (NCI-H1395; first compound 1.265 µM): 0.495; relative viability (NCI-H1395; first compound 4 µM): 0.404; relative viability (NCI-H2170; first compound 0.04 µM): 0.811; relative viability (NCI-H2170; first compound 0.1265 µM): 0.801; relative viability (NCI-H2170; first compound 0.4 µM): 0.689; relative viability (NCI-H2170; first compound 1.265 µM): 0.403; relative viability (NCI-H2170; first compound 4 µM): 0.34; relative viability (NCI-H1993; first compound 0.04 µM): 0.705; relative viability (NCI-H1993; first compound 0.1265 µM): 0.653; relative viability (NCI-H1993; first compound 0.4 µM): 0.667; relative viability (NCI-H1993; first compound 1.265 µM): 0.665; relative viability (NCI-H1993; first compound 4 µM): 0.665; relative viability (UMC-11; first compound 0.04 µM): 0.941; relative viability (UMC-11; first compound 0.1265 µM): 0.997; relative viability (UMC-11; first compound 0.4 µM): 0.26; relative viability (UMC-11; first compound 1.265 µM): 0.197; relative viability (UMC-11; first compound 4 µM): 0.158; relative viability (NCI-H1734; first compound 0.04 µM): 0.709; relative viability (NCI-H1734; first compound 0.1265 µM): 0.645; relative viability (NCI-H1734; first compound 0.4 µM): 0.637; relative viability (NCI-H1734; first compound 1.265 µM): 0.544; relative viability (NCI-H1734; first compound 4 µM): 0.421; relative viability (NCI-H647; first compound 0.04 µM): 0.998; relative viability (NCI-H647; first compound 0.1265 µM): 0.596; relative viability (NCI-H647; first compound 0.4 µM): 0.447; relative viability (NCI-H647; first compound 1.265 µM): 0.156; relative viability (NCI-H647; first compound 4 µM): 0.132; relative viability (NCI-H1792; first compound 0.04 µM): 0.702; relative viability (NCI-H1792; first compound 0.4 µM): 0.722; relative viability (NCI-H1792; first compound 1.265 µM): 0.411; relative viability (NCI-H1792; first compound 4 µM): 0.364; relative viability (NCI-H838; first compound 0.04 µM): 1.03; relative viability (NCI-H838; first compound 0.1265 µM): 0.698; relative viability (NCI-H838; first compound 0.4 µM): 0.882; relative viability (NCI-H838; first compound 1.265 µM): 0.291; relative viability (NCI-H838; first compound 4 µM): 0.263; relative viability (HCC-15; first compound 0.04 µM): 0.806; relative viability (HCC-15; first compound 0.4 µM): 0.768; relative viability (HCC-15; first compound 1.265 µM): 0.417; relative viability (HCC-15; first compound 4 µM): 0.449; relative viability (NCI-H2009; first compound 0.04 µM): 1.09; relative viability (NCI-H2009; first compound 0.1265 µM): 0.968; relative viability (NCI-H2009; first compound 0.4 µM): 0.697; relative viability (NCI-H2009; first compound 1.265 µM): 0.32; relative viability (NCI-H2009; first compound 4 µM): 0.268; relative viability (NCI-H2347; first compound 0.04 µM): 0.982; relative viability (NCI-H2347; first compound 0.1265 µM): 0.8; relative viability (NCI-H2347; first compound 0.4 µM): 0.848; relative viability (NCI-H2347; first compound 1.265 µM): 0.646; relative viability (NCI-H2347; first compound 4 µM): 0.477; relative viability (HARA; first compound 0.04 µM): 0.915; relative viability (HARA; first compound 0.1265 µM): 0.598; relative viability (HARA; first compound 0.4 µM): 0.283; relative viability (HARA; first compound 1.265 µM): 0.266; relative viability (HARA; first compound 4 µM): 0.156
